Results: ChEMBL document CHEMBL3885861, “Open TG-GATES”

Organism: Rattus norvegicus
Assay: Open TG-GATES - Regimen: Single
Format: toxicity, organism-based, Sprague-Dawley
Set-up: regimen Single, gender Male, age 6 weeks
Conditions: in vivo, po, route gavage; for APTT / Bas / Eos / Fbg / Hb / Ht / Lym / MCH / MCHC / MCV / Mono / Neu / PT / Plat / RBC / Ret / WBC: tissue Blood; for KIDNEY_L / KIDNEY_R / KIDNEY_TOTAL: tissue Kidney; for LIVER: tissue Liver; for A/G / ALP / ALT / AST / BUN / CRE / Ca / Cl / DBIL / GLC / IP / K / LDH / Na / PL / RALB / TBIL / TC / TG / TP / gamma-GTP: tissue Plasma
[1] = 0 mg/kg, 3 h, dose level Control
[2] = 0 mg/kg, 6 h, dose level Control
[3] = 0 mg/kg, 9 h, dose level Control
[4] = 0 mg/kg, 24 h, dose level Control

## NC(=O)N/N=C/c1ccc([N+](=O)[O-])o1 [NITROFURAZONE]
[1]
  TERMINAL_BW: 181.6 g
  APTT: 15.7 s
  Bas: 0%
  Eos: 0.6%
  Fbg: 250 mg/dL
  Hb: 12.7 g/dL
  Ht: 39.7%
  Lym: 79%
  MCH: 21.6 pg
  MCHC: 32%
  MCV: 67.7 fL
  Mono: 2.8%
  Neu: 17%
  PT: 14.7 s
  Plat: 114.3 x10_4/uL
  RBC: 586.4 x10_4/ul
  Ret: 10.9%
  WBC: 77.6 x10_2/uL
  KIDNEY_L: 0.8 g
  KIDNEY_R: 0.8 g
  KIDNEY_TOTAL: 1.6 g
  LIVER: 8.2 g
  A/G: 0.9
  ALP: 1508.2 IU/L
  ALT: 45.4 IU/L
  AST: 78 IU/L
  BUN: 9.8 mg/dL
  CRE: 0.2 mg/dL
  Ca: 11.3 mg/dL
  Cl: 104.8 meq/L
  DBIL: 0.012 mg/dL
  GLC: 179.2 mg/dL
  IP: 9.6 mg/dL
  K: 4.1 meq/L
  LDH: 49.8 IU/L
  Na: 141 meq/L
  PL: 141.8 mg/dL
  RALB: 2.4 g/dL
  TBIL: 0.056 mg/dL
  TC: 80.4 mg/dL
  TG: 54.6 mg/dL
  TP: 5.2 g/dL
  gamma-GTP: 1.2 IU/L
[2]
  TERMINAL_BW: 180.8 g
  APTT: 16.4 s
  Bas: 0.2%
  Eos: 0.6%
  Fbg: 266.6 mg/dL
  Hb: 12.7 g/dL
  Ht: 39.4%
  Lym: 73.2%
  MCH: 22.1 pg
  MCHC: 32.2%
  MCV: 68.6 fL
  Mono: 3%
  Neu: 21.8%
  PT: 14.6 s
  Plat: 118.4 x10_4/uL
  RBC: 576.2 x10_4/ul
  Ret: 11%
  WBC: 90.9 x10_2/uL
  KIDNEY_L: 0.8 g
  KIDNEY_R: 0.9 g
  KIDNEY_TOTAL: 1.7 g
  LIVER: 7.4 g
  A/G: 0.9
  ALP: 1461 IU/L
  ALT: 44.4 IU/L
  AST: 77.2 IU/L
  BUN: 8 mg/dL
  CRE: 0.2 mg/dL
  Ca: 11 mg/dL
  Cl: 105 meq/L
  DBIL: 0.01 mg/dL
  GLC: 169.8 mg/dL
  IP: 10.3 mg/dL
  K: 4.2 meq/L
  LDH: 61.4 IU/L
  Na: 140.6 meq/L
  PL: 132.2 mg/dL
  RALB: 2.4 g/dL
  TBIL: 0.062 mg/dL
  TC: 78.2 mg/dL
  TG: 36.2 mg/dL
  TP: 5.2 g/dL
  gamma-GTP: 1 IU/L
[3]
  TERMINAL_BW: 179.5 g
  APTT: 15.7 s
  Bas: 0%
  Eos: 0.6%
  Fbg: 260 mg/dL
  Hb: 12.7 g/dL
  Ht: 39.8%
  Lym: 75%
  MCH: 21.6 pg
  MCHC: 32%
  MCV: 67.5 fL
  Mono: 2.4%
  Neu: 21.4%
  PT: 14.5 s
  Plat: 109.4 x10_4/uL
  RBC: 590.6 x10_4/ul
  Ret: 10.5%
  WBC: 64.3 x10_2/uL
  KIDNEY_L: 0.8 g
  KIDNEY_R: 0.8 g
  KIDNEY_TOTAL: 1.6 g
  LIVER: 7.1 g
  A/G: 0.9
  ALP: 1214.2 IU/L
  ALT: 47.8 IU/L
  AST: 79.4 IU/L
  BUN: 8.8 mg/dL
  CRE: 0.2 mg/dL
  Ca: 11 mg/dL
  Cl: 105 meq/L
  DBIL: 0.012 mg/dL
  GLC: 169 mg/dL
  IP: 10.6 mg/dL
  K: 3.9 meq/L
  LDH: 55.2 IU/L
  Na: 142 meq/L
  PL: 139.4 mg/dL
  RALB: 2.4 g/dL
  TBIL: 0.062 mg/dL
  TC: 85.2 mg/dL
  TG: 25 mg/dL
  TP: 5.2 g/dL
  gamma-GTP: 1.4 IU/L
[4]
  TERMINAL_BW: 194.2 g
  APTT: 17.5 s
  Bas: 0%
  Eos: 0.8%
  Fbg: 246.6 mg/dL
  Hb: 13 g/dL
  Ht: 40.1%
  Lym: 76.8%
  MCH: 22 pg
  MCHC: 32.4%
  MCV: 67.8 fL
  Mono: 3.2%
  Neu: 18.6%
  PT: 14.8 s
  Plat: 111.2 x10_4/uL
  RBC: 592.4 x10_4/ul
  Ret: 9.7%
  WBC: 96.7 x10_2/uL
  KIDNEY_L: 0.8 g
  KIDNEY_R: 0.9 g
  KIDNEY_TOTAL: 1.7 g
  LIVER: 9 g
  A/G: 0.9
  ALP: 1711.4 IU/L
  ALT: 48.4 IU/L
  AST: 74.4 IU/L
  BUN: 14.8 mg/dL
  CRE: 0.2 mg/dL
  Ca: 11.3 mg/dL
  Cl: 104.8 meq/L
  DBIL: 0.012 mg/dL
  GLC: 177.6 mg/dL
  IP: 8 mg/dL
  K: 3.7 meq/L
  LDH: 61.2 IU/L
  Na: 142 meq/L
  PL: 149.2 mg/dL
  RALB: 2.5 g/dL
  TBIL: 0.044 mg/dL
  TC: 82.2 mg/dL
  TG: 72.4 mg/dL
  TP: 5.4 g/dL
  gamma-GTP: 1 IU/L
30 mg/kg, 3 h, dose level Low
  TERMINAL_BW: 181.5 g
  APTT: 16.4 s
  Bas: 0.2%
  Eos: 0.8%
  Fbg: 262.8 mg/dL
  Hb: 13 g/dL
  Ht: 40.6%
  Lym: 68.6%
  MCH: 21.7 pg
  MCHC: 31.9%
  MCV: 67.8 fL
  Mono: 3.6%
  Neu: 26%
  PT: 14.8 s
  Plat: 116.3 x10_4/uL
  RBC: 598.8 x10_4/ul
  Ret: 10.6%
  WBC: 92.5 x10_2/uL
  KIDNEY_L: 0.8 g
  KIDNEY_R: 0.8 g
  KIDNEY_TOTAL: 1.6 g
  LIVER: 8.1 g
  A/G: 0.9
  ALP: 1547.4 IU/L
  ALT: 43 IU/L
  AST: 76.8 IU/L
  BUN: 10.8 mg/dL
  CRE: 0.2 mg/dL
  Ca: 11.3 mg/dL
  Cl: 106.4 meq/L
  DBIL: 0.01 mg/dL
  GLC: 175 mg/dL
  IP: 9.7 mg/dL
  K: 4 meq/L
  LDH: 47.2 IU/L
  Na: 142.8 meq/L
  PL: 145.4 mg/dL
  RALB: 2.4 g/dL
  TBIL: 0.054 mg/dL
  TC: 81 mg/dL
  TG: 48 mg/dL
  TP: 5.2 g/dL
  gamma-GTP: 1.6 IU/L
30 mg/kg, 6 h, dose level Low
  TERMINAL_BW: 178.8 g
  APTT: 16 s
  Bas: 0%
  Eos: 0.8%
  Fbg: 253.2 mg/dL
  Hb: 12.8 g/dL
  Ht: 39.9%
  Lym: 71%
  MCH: 21.3 pg
  MCHC: 32.1%
  MCV: 66.5 fL
  Mono: 2.8%
  Neu: 24%
  PT: 14.6 s
  Plat: 116.1 x10_4/uL
  RBC: 599.8 x10_4/ul
  Ret: 10.6%
  WBC: 83.2 x10_2/uL
  KIDNEY_L: 0.8 g
  KIDNEY_R: 0.8 g
  KIDNEY_TOTAL: 1.6 g
  LIVER: 7.6 g
  A/G: 0.9
  ALP: 1430.2 IU/L
  ALT: 43.6 IU/L
  AST: 76.8 IU/L
  BUN: 7.8 mg/dL
  CRE: 0.2 mg/dL
  Ca: 11 mg/dL
  Cl: 105 meq/L
  DBIL: 0.01 mg/dL
  GLC: 167.4 mg/dL
  IP: 10.3 mg/dL
  K: 4 meq/L
  LDH: 52.6 IU/L
  Na: 141 meq/L
  PL: 139 mg/dL
  RALB: 2.4 g/dL
  TBIL: 0.062 mg/dL
  TC: 83.6 mg/dL
  TG: 33.2 mg/dL
  TP: 5.1 g/dL
  gamma-GTP: 1.6 IU/L
30 mg/kg, 9 h, dose level Low
  TERMINAL_BW: 179 g
  APTT: 16 s
  Bas: 0%
  Eos: 1%
  Fbg: 264.6 mg/dL
  Hb: 12.7 g/dL
  Ht: 39.3%
  Lym: 76.6%
  MCH: 21.1 pg
  MCHC: 32.4%
  MCV: 65.3 fL
  Mono: 2.8%
  Neu: 19%
  PT: 14.9 s
  Plat: 105.2 x10_4/uL
  RBC: 601.4 x10_4/ul
  Ret: 10.5%
  WBC: 60.9 x10_2/uL
  KIDNEY_L: 0.8 g
  KIDNEY_R: 0.8 g
  KIDNEY_TOTAL: 1.7 g
  LIVER: 7.2 g
  A/G: 0.9
  ALP: 1367.6 IU/L
  ALT: 42.8 IU/L
  AST: 76 IU/L
  BUN: 7.4 mg/dL
  CRE: 0.1 mg/dL
  Ca: 10.8 mg/dL
  Cl: 105.6 meq/L
  DBIL: 0.016 mg/dL
  GLC: 163.6 mg/dL
  IP: 10.3 mg/dL
  K: 3.7 meq/L
  LDH: 48.8 IU/L
  Na: 141.4 meq/L
  PL: 133.2 mg/dL
  RALB: 2.4 g/dL
  TBIL: 0.064 mg/dL
  TC: 72.4 mg/dL
  TG: 40.4 mg/dL
  TP: 5.2 g/dL
  gamma-GTP: 1.2 IU/L
30 mg/kg, 24 h, dose level Low
  TERMINAL_BW: 197.2 g
  APTT: 15.8 s
  Bas: 0.2%
  Eos: 0.8%
  Fbg: 260 mg/dL
  Hb: 12.3 g/dL
  Ht: 38%
  Lym: 79%
  MCH: 21.5 pg
  MCHC: 32.3%
  MCV: 66.5 fL
  Mono: 3.6%
  Neu: 16%
  PT: 14.8 s
  Plat: 112 x10_4/uL
  RBC: 571.2 x10_4/ul
  Ret: 10.6%
  WBC: 87.3 x10_2/uL
  KIDNEY_L: 0.9 g
  KIDNEY_R: 0.9 g
  KIDNEY_TOTAL: 1.8 g
  LIVER: 9.3 g
  A/G: 0.9
  ALP: 1764.6 IU/L
  ALT: 50.2 IU/L
  AST: 75.2 IU/L
  BUN: 14.6 mg/dL
  CRE: 0.2 mg/dL
  Ca: 11.4 mg/dL
  Cl: 104.6 meq/L
  DBIL: 0.014 mg/dL
  GLC: 179.2 mg/dL
  IP: 9.1 mg/dL
  K: 4 meq/L
  LDH: 64.2 IU/L
  Na: 142 meq/L
  PL: 145.6 mg/dL
  RALB: 2.5 g/dL
  TBIL: 0.048 mg/dL
  TC: 80.2 mg/dL
  TG: 62.6 mg/dL
  TP: 5.4 g/dL
  gamma-GTP: 1 IU/L
